Experimental data from patent publication US9642874B2, “Compositions of selenoorganic compounds and methods of use thereof” (Alltech, Inc., priority 2014, dated 2017).

Tested on: G6pc
Test: G6pc mRNA expression (QRT-PCR) in AML-12 cells
Type: cell-based, mouse
Details: insulin 10 and 100 nM
Experimental: For RNA analysis of insulin receptor (Insr), insulin like growth factor receptor (Igf1r), and Glucose-6-Phosphatase (G6pc), AML-12 cells were amplified in ITS, Dex and FBS-containing DMEM/F12 media, and cultured on 24-well (6.7×10^4 cells/well) plates in 10% FBS ITS-free DMEM/F12 media with or without Dex overnight. These cells were treated with control (water) or various compounds (diluted in 10% FBS ITS-free DMEM/F12 media with or without Dex) for 6 hours, 24 hours, or 48 hours.
In some experiments, the AML-12 cells were washed twice with PBS after the compound treatments for 24 hours, and then incubated with selenium compounds (150 or 300 ppb of each compound) in the presence or absence of insulin (10 or 100 nM), 0.1 mM 8-CPT (Sigma), or 0.5 μM Dex in serum-free, glucose/phenol red-free DMEM media supplemented with 20 mM lactose and 2 mM pyruvate, and 15 mM HEPES (glucose-production media) for another 6 hours. After treatments, cell media were collected and subjected to glucose assays using Abcam glucose assay kit according to the manufacturer's protocol. […]
Total RNA from these cells was isolated using Trizol (Invitrogen) according to the manufacturer's protocol, and then incubated with DNase I to remove any potential contaminated genomic DNA. […] Three to six samples were analyzed in each treatment group. […]

**Q.** Which G6pc expression (6 hours, FBS/ITS/Dex-free media) does the source give for “insulin: insulin (10 or 100 nM, Sigma) used as comparator and cotreatment” here?
**A.** significantly inhibited G6pc expression

**Q.** And the “8-CPT/Dex-induced G6pc expression” value (vs 8-CPT/Dex group)?
**A.** significantly decreased 8-CPT/Dex-induced G6pc expression
